Results: patent publication US10105357B2, “Indication of antibiotic drugs for preparation of cancer inhibition pharmaceutical composition” (LAUNX BIOMEDICAL CO., LTD., priority 2014, dated 2018)
Where two headings read alike, the source gives them in different places.

Experiments:
[1] = tested on: SAS (Tongue squamous cell carcinoma); test: Cell viability analysis, tongue cancer SAS; format: cell-based, human; conditions: Homo sapiens, 72 h; SAS; repeated experiment; read-out: The results of antibiotic drug inhibiting cancer cell lines (cell viability analysis), SAS
[2] = tested on: AGS (Gastric Adenocarcinoma); test: Cell viability analysis, gastric cancer AGS; format: cell-based, human; conditions: Homo sapiens, 72 h
[3] = tested on: HCT116 (p53+) (Colorectal Carcinoma)
TOV-21G = test: Cell viability analysis, ovarian cancer TOV-21G; format: cell-based, human; conditions: Homo sapiens, TOV21G, 72 h; TOV-21G; repeated experiment; read-out: The results of antibiotic drug inhibiting cancer cell lines (cell viability analysis), TOV-21G
NIH: OVCAR-3 = test: Cell viability analysis, ovarian cancer NIH: OVCAR-3; format: cell-based, human; conditions: Homo sapiens, 72 h; NIH-OVCAR-3; repeated experiment; read-out: The results of antibiotic drug inhibiting cancer cell lines (cell viability analysis), NIH-OVCAR-3
[4] = tested on: 786-O (Renal adenocarcinoma); test: Cell viability analysis, renal cancer 786-O; format: cell-based, human; conditions: Homo sapiens, 786-0, 72 h; 786-O; repeated experiment; read-out: The results of antibiotic drug inhibiting cancer cell lines (cell viability analysis), 786-O
[5] = tested on: MCF7 (Mammary Gland, Adenocarcinoma); test: Cell viability analysis, breast cancer MCF7; format: cell-based, human; conditions: Homo sapiens, MCF7, 72 h
T24 = test: Cell viability analysis, bladder cancer T24; format: cell-based, human; conditions: Homo sapiens, T-24, 72 h; T24; repeated experiment; read-out: The results of antibiotic drug inhibiting cancer cell lines (cell viability analysis), T24
[6] = tested on: MDA-MB-231 (Mammary Gland, Adenocarcinoma); test: Cell viability analysis, breast cancer MDA-MB-231; format: cell-based, human; conditions: Homo sapiens, MDA-MB-231, 72 h; MDA-MB231; repeated experiment; read-out: The results of antibiotic drug inhibiting cancer cell lines (cell viability analysis), MDA-MB231
[7] = tested on: PC3 (p53−) (Prostate Adenocarcinoma); test: Cell viability analysis, prostate cancer PC3; format: cell-based, human; conditions: Homo sapiens, 72 h
BxPC-3 = test: Cell viability analysis, pancreatic cancer BxPC-3; format: cell-based, human; conditions: Homo sapiens, 72 h; BxPC-3; repeated experiment; read-out: The results of antibiotic drug inhibiting cancer cell lines (cell viability analysis), BxPC-3
[8] = tested on: HL-60 (Acute Promyelocytic Leukemia); test: Cell viability analysis, leukemia HL-60; format: cell-based, human; conditions: Homo sapiens, HL-60, 72 h, drug 10 μM, 72 hours, WST-1, OD450 nm; read-out: cell viability (survival rate), HL-60
[9] = tested on: LoVo (Colorectal Adenocarcinoma); test: Cell viability analysis, colon cancer LoVo; format: cell-based, human; conditions: Homo sapiens, LoVo, 72 h
[10] = tested on: A549 (Lung Adenocarcinoma); test: Cell viability analysis, lung cancer A549; format: cell-based, human; conditions: Homo sapiens, A549, 72 h
[11] = tested on: BCC (basal cell carcinoma); test: Cell viability analysis, skin cancer BCC; format: cell-based, human; conditions: Homo sapiens, 72 h; BCC; repeated experiment; read-out: The results of antibiotic drug inhibiting cancer cell lines (cell viability analysis), BCC
U-2OS = test: Cell viability analysis, osteosarcoma U-2OS; format: cell-based, human; conditions: Homo sapiens, 72 h; U2OS; repeated experiment; read-out: The results of antibiotic drug inhibiting cancer cell lines (cell viability analysis), U2OS
[12] = tested on: Hep3B (hepatocellular carcinoma); test: Cell viability analysis, hepatic cancer Hep3B; format: cell-based, human; conditions: Homo sapiens, 72 h; Hep3B; repeated experiment; read-out: The results of antibiotic drug inhibiting cancer cell lines (cell viability analysis), Hep3B
[13] = tested on: HI650 (Lung Adenocarcinoma); test: Cell viability analysis, lung cancer HI650; format: cell-based, human; conditions: Homo sapiens, NCI-H1650, 72 h
AsPC-1 = test: Cell viability analysis, pancreatic cancer AsPC-1; format: cell-based, human; conditions: Homo sapiens, ASPC1, 72 h; AsPC-1; repeated experiment; read-out: The results of antibiotic drug inhibiting cancer cell lines (cell viability analysis), AsPC-1
[14] = tested on: MKN-45 (Gastric Adenocarcinoma); test: Cell viability analysis, gastric cancer MKN-45; format: cell-based, human; conditions: Homo sapiens, MKN-45, 72 h
[15] = tested on: HeLa (Cervix Adenocarcinoma); test: Cell viability analysis, cervical cancer HeLa; format: cell-based, human; conditions: Homo sapiens, HeLa, 72 h, HeLa
[16] = tested on: A375 (Amelanotic Melanoma); test: Cell viability analysis, skin cancer A375; format: cell-based, human; conditions: Homo sapiens, A-375, 72 h
cancer cell lines = test: Cell viability analysis (WST-1) on cancer cell lines; format: cell-based, human; conditions: drug 10 μM, 72 hours, WST-1; Table 3
[17] = tested on: TSGH-8301 (Urinary Bladder Carcinoma); test: Cell viability analysis, bladder cancer TSGH-8301; format: cell-based, human; conditions: Homo sapiens, 72 h

`CCCCCCCCCCCCCCCC[N+](C)(C)CCN(Cc1ccc(OC)cc1)c1ncccn1` [Thonzonium Bromide] showed a viability at 10 µM [1] of 20.4%, a viability at 10 µM ([2]; AGS, repeated experiment, read-out: The results of antibiotic drug inhibiting cancer cell lines (cell viability analysis), AGS) of 14.4% and a viability at 10 µM ([2]; drug 10 μM, 72 hours, WST-1, OD450 nm, read-out: cell viability (survival rate), AGS) of 22.5%. The viability [3] was 18.8%, the viability at 10 µM (TOV-21G) was 17.4% and the viability at 10 µM (NIH: OVCAR-3) was 55.7%. The viability at 10 µM [4] was 16.8%, the viability at 10 µM ([5]; MCF-7, repeated experiment, read-out: The results of antibiotic drug inhibiting cancer cell lines (cell viability analysis), MCF-7) was 41% and the viability at 10 µM ([5]; drug 10 μM, 72 hours, WST-1, OD450 nm, read-out: cell viability (survival rate), MCF7) was 47%. For the same molecule, the viability at 10 µM (T24) was 18.5%, the viability at 10 µM [6] was 33.1% and the viability at 10 µM ([7]; PC-3, repeated experiment, read-out: The results of antibiotic drug inhibiting cancer cell lines (cell viability analysis), PC-3) was 29.3%. It also gave a viability at 10 µM ([7]; drug 10 μM, 72 hours, WST-1, OD450 nm, read-out: cell viability (survival rate), PC3) of 46.2%, a viability at 10 µM (BxPC-3) of 24.4% and a viability at 10 µM [8] of 35.2%. For the same molecule, the viability at 10 µM ([9]; read-out: The results of antibiotic drug inhibiting cancer cell lines (cell viability analysis), LoVo, repeated experiment) was 50.9%, the viability at 10 µM ([9]; read-out: cell viability (survival rate), LoVo, drug 10 μM, 72 hours, WST-1, OD450 nm) was 39.4% and the viability at 10 µM ([10]; A549, repeated experiment, read-out: The results of antibiotic drug inhibiting cancer cell lines (cell viability analysis), A549) was 15%. It also gave a viability at 10 µM ([10]; drug 10 μM, 72 hours, WST-1, OD450 nm, read-out: cell viability (survival rate), A549) of 36.6%, a viability at 10 µM [11] of 23.4% and a viability at 10 µM (U-2OS) of 31.7%. The viability at 10 µM [12] was 51.3%, the viability at 10 µM ([13]; H1650, repeated experiment, read-out: The results of antibiotic drug inhibiting cancer cell lines (cell viability analysis), H1650) was 37.6% and the viability at 10 µM ([13]; drug 10 μM, 72 hours, WST-1, OD450 nm, read-out: cell viability (survival rate), H1650) was 36.7%. For the same molecule, the viability at 10 µM (AsPC-1) was 27.6%, the viability at 10 µM ([14]; MKN-45, repeated experiment, read-out: The results of antibiotic drug inhibiting cancer cell lines (cell viability analysis), MKN-45) was 31.2% and the viability at 10 µM ([14]; drug 10 μM, 72 hours, WST-1, OD450 nm, read-out: cell viability (survival rate), MKN-45) was 47%. It also gave a viability at 10 µM ([15]; repeated experiment, read-out: The results of antibiotic drug inhibiting cancer cell lines (cell viability analysis), HeLa) of 20.3%, a viability at 10 µM ([15]; drug 10 μM, 72 hours, WST-1, OD450 nm, read-out: cell viability (survival rate), HeLa) of 28% and a viability at 10 µM ([16]; A375, repeated experiment, read-out: The results of antibiotic drug inhibiting cancer cell lines (cell viability analysis), A375) of 12.4%. The viability at 10 µM ([16]; drug 10 μM, 72 hours, WST-1, OD450 nm, read-out: cell viability (survival rate), A375) was 24.4%, the “inhibition effect on different cancer cell lines” value (cancer cell lines) was “significant inhibition effect” and the viability at 10 µM ([17]; TSGH-8301, repeated experiment, read-out: The results of antibiotic drug inhibiting cancer cell lines (cell viability analysis), TSGH-8301) was 16.7%. For the same molecule, the viability at 10 µM ([17]; drug 10 μM, 72 hours, WST-1, OD450 nm, read-out: cell viability (survival rate), TSGH) was 18.4%.
